Assay results from patent publication US20170258970A1, “POLYMER-DRUG CONJUGATE BASED ON A POLYISOOLEFIN-BASED COPOLYMER” (ARLANXEO Singapore Pte. Ltd., priority 2014, published 2017).

Test system: C2C12 mouse myoblast cells
Assay: MTT assay of film leachate toxicity
Format: cell-based
Settings: 24 h exposure
Experimental: Toxicity studies were also performed using the MTT assay to evaluate whether films of 3.0a-c on stainless steel would release toxic levels of paclitaxel or any other leachate during a defined incubation period in cell culture media.
Preparation of leachate: Test samples were melt-pressed to a thickness of 0.4 mm. The melt pressed film was then cut into squares of 1 cm×1 cm. Samples were sterilized by washing with 70% ethanol and subsequently dried for 2 h under UV light. […]
MTT assay: C2C12 mouse myoblast cells were seeded in a Nunclon™ 96-well U bottom transparent polystrol plate to obtain 10,000 cells/well in 100 μL of DMEM containing serum, glutamax and antibiotics as described above. […] After shaking (1 second, 2 mm amp, 654 rpm), the absorbance of the wells at 540 nm was read using an M1000-Pro plate reader (Tecan). The absorbance of wells not containing cells but treated by all of the above steps was subtracted as a background and the cell viability was calculated relative to wells containing cells that were exposed to just culture medium. No (0%) cell viability was detected for the cells exposed to the highest concentrations of the positive control sodium lauryl sulfate, confirming the sensitivity of the assay.

`CCCCCCCCCCCCOS(=O)(=O)[O-].[Na+]` [SDS, sodium dodecyl sulfate] gave a cell viability (at 0.2 μg/mL) of under 10% and a cell viability (highest concentrations of the positive control) of 0%.
